The subject of the test is nevirapine (BI-RG587)-susceptible HIV-1. Description: Susceptibility of nevirapine-susceptible HIV-1. The test is classed as cell-based. The conditions noted are these: Human immunodeficiency virus 1, read-out: EC50 against nevirapine-susceptible HIV-1.

`O=C(O)CCC(=O)NCCc1ccc(C2(c3ccc(CCNC(=O)CCC(=O)O)cc3)C34c5c6c7c8c9c%10c(c%11c%12c3c3c5c5c%13c6c6c7c7c9c9c%14c%10c%10c%11c%11c%12c%12c3c3c5c5c%13c%13c6c6c7c9c7c9c%14c%10c%10c%11c%11c%12c3c3c5c5c%13c6c7c6c9c%10c%11c3c56)C824)cc1` [Compound 2c, bis(monosuccinimide) derivative of p,p′-bis(2-aminoethyl)diphenyl-C60]: the EC50 came to 530 nM.

For the origin of these results see patent US20010041801A1, “Water soluble fullerenes with antiviral activity” (The Regents of the University of California, priority 1994, published 2001).
